Results reported in paper PMC5617480 (Oncotarget, 2017).

Key:
MGC80-3 cells = assay: Cytotoxicity assay (MTT assay); type: cell-based, human; settings: for Inhibitory rates (%): MGC80-3, 20 μM; for IC50: MGC80-3, 24 h
Method: (§1) To evaluate the cytotoxicity of chiral platinum(II) complexes, HeLa, BEL-7402, MGC80-3, BEL-7404, A549, Hep-G2 and HL-7702 cells (normal cells) were treated with varying concentrations of complexes 1–6 and cisplatin (positive control, cisplatin was dissolved at a concentration of 1.0 mM in 0.154 M NaCl) for 24 h and 48 h. The cell viability of each experimental group was examined by MTT assays. […] [61, 62]. […] Therefore, complex 6 (10 μM) was selected for cell apoptosis analysis by flow-cytometry, RT-PCR, caspase-3/9 activation assays, western blot and transfection assays in BEL-7404 cells for 24 h. In addition, this observed difference in in vitro cytotoxicity between the three complexes 4–6 could be due to the influence of the chirality of the FOA ligand [68]. […]
(§2) Materials 100 U/mL penicillin and 100 μg/mL streptomycin in 25 cm2 culture flasks at 37 °C humidified atmosphere with Tris, RNase A, and propidium iodide (PI) were 5% CO2. All cells to be tested in the following assays have purchased from Sigma. The antibody of mutp53, a passage number of 3-6. […]
(§3) were purchased from Abcam. Unless otherwise stated, BEL-7404, A549, and Hep-G2 cancer-cell lines and HL-spectroscopic titration experiments were carried out in 7702 normal cells) per well were seeded in triplicate in TBS (10 mM pH7.35 Tris-HCl, containing 100 mM KCl). 96-well plates and incubated for 24 h at 37 °C and 5.0% The total RNA isolation kit and the two-step RT-PCR kit CO2/95.0% air. Then graded amounts of compound were purchased from TIANGEN. DNA oligomers (highly added to the wells in 10.0 μL of FBS free culture medium polymerized stored at 4 °C; long-term storage at −20 °C) and the plates were incubated in a 5% CO2 humidified are listed in Supplementary Table 1 and were obtained from atmosphere for 24 h and 48 h. Six replica wells were used Shanghai Sangon Biological Engineering Technology & as controls. Each the cells were grew for 12.0 h before Services (Shanghai, China). All tumor cell lines (HeLa, treatment to reach 70.0% confluency and 20.0 μL of tested BEL-7402, MGC80-3, BEL-7404, A549, Hep-G2 cancer- various concentrations of compounds were added to each cell lines and normal liver cell line HL-7702) were obtained well. The final concentration of the tested complexes from the Shanghai Institute for Biological Science (China). or compounds were kept at 1.25, 2.5, 5, 10, 20 μM, Stock solutions of all the compounds (2.0 mM) were made respectively. After 24 h or 48 h of culture, 0.1 mg of in DMSO, and further dilutions to working concentrations MTT (in 20 μL of PBS) was added to each well, and cells were made with corresponding buffer. were incubated at 37 °C for 6 h. The formed formazan crystals were then dissolved in 100 μL of DMSO and the Instrumentation absorbance was read by enzyme labeling instrument with Infrared spectra were obtained on a Perkine Elmer 490/630 nm double wavelength measurement. The final FT-IR Spectrometer. Elemental analyses (C, H, N) IC50 values were calculated by the Bliss method (n = 5). were carried out on a Perkin Elmer Series II CHNS/O All tests were repeated in at least three independent trials. […]
(§4) 10.0 min. The cell pellet obtained was dissolved in 1.0 M
(§5) The region between 200 and 400 nm was scanned for each NaOH (1.0 mL) and diluted with 2.0% (v/v) HNO3 (5.0 sample. MTT assay was performed on M1000 microplate mL) for determining whole cell Pt content. Another set reader (Tecan Trading Co. Ltd, Shanghai, China). Cell was treated similarly, nuclear proteins, nuclear fraction, cycle and apoptosis analysis was recorded on FACS Aria cytoplasmic protein, membrane proteins and other fraction II Flow Cytometer (BD Biocsiences, San Jose, USA). were isolated as described by Chen and Schreiber et al. And the each final solution was made up to 5.0 mL
(§6) Cytotoxicity assay (MTT assay) using 2.0% (v/v) HNO3. The amount of Pt taken up by the cells was determined by ICP-MS. The instrument was […]

Hep-G2 cells = assay: Cytotoxicity assay (MTT assay); type: cell-based, human; settings: for Inhibitory rates (%): Hep-G2, 20 μM; for IC50: Hep-G2, 24 h
Method: as §1, §2, §3, §4, §5, §6

HeLa cells = assay: Cytotoxicity assay (MTT assay); type: cell-based, human; settings: for Inhibitory rates (%): 20 μM
Method: as §1, §2, §3, §4, §5, §6

A549 cells = assay: Cytotoxicity assay (MTT assay); type: cell-based, human; settings: for Inhibitory rates (%): A549, 20 μM; for IC50: A549, 24 h
Method: as §1, §2, §3, §4, §5, §6

BEL-7404 cells = assay: Cytotoxicity assay (MTT assay); type: cell-based, human; settings: for Inhibitory rates (%): BEL-7404, 20 μM; for IC50: BEL-7404, 24 h
Method: as §1, §2, §3, §4, §5, §6

BEL-7402 cells = assay: Cytotoxicity assay (MTT assay); type: cell-based, human; settings: for Inhibitory rates (%): BEL-7402, 20 μM; for IC50: BEL-7402, 24 h
Method: as §1, §2, §3, §4, §5, §6

Pu27 (c-myc) G4 = test system: Pu27 (c-myc) G4; set-up: method as in earlier work; settings: ref [1], cited from earlier work; for ctDNADC50/Pu27DC50: FID selectivity ratio; for Pu27DC50: FID
HL-7702 normal cells = assay: Cytotoxicity assay (MTT assay); type: cell-based, human; settings: for Inhibitory rates (%): HL-7702, 20 μM; for IC50: HL-7702, 24 h
Method: To evaluate the cytotoxicity of chiral platinum(II) complexes, HeLa, BEL-7402, MGC80-3, BEL-7404, A549, Hep-G2 and HL-7702 cells (normal cells) were treated with varying concentrations of complexes 1–6 and cisplatin (positive control, cisplatin was dissolved at a concentration of 1.0 mM in 0.154 M NaCl) for 24 h and 48 h. The cell viability of each experimental group was examined by MTT assays. […] [61, 62].
as §2, §3

| Compound | Inhibitory rates (%) (MGC80-3 cells; 24 h) | Inhibitory rates (%) (MGC80-3 cells; 48 h) | IC50 (MGC80-3 cells) [µM] | Inhibitory rates (%) (Hep-G2 cells; 24 h) | Inhibitory rates (%) (Hep-G2 cells; 48 h) | IC50 (Hep-G2 cells) [µM] | Inhibitory rates (%) (HeLa cells; 24 h) | Inhibitory rates (%) (HeLa cells; 48 h) | IC50 (HeLa cells; 24 h) [µM] | Inhibitory rates (%) (A549 cells; 24 h) | Inhibitory rates (%) (A549 cells; 48 h) | IC50 (A549 cells) [µM] | Inhibitory rates (%) (BEL-7404 cells; 24 h) | Inhibitory rates (%) (BEL-7404 cells; 48 h) | IC50 (BEL-7404 cells) [µM] | Inhibitory rates (%) (BEL-7402 cells; 24 h) | Inhibitory rates (%) (BEL-7402 cells; 48 h) | IC50 (BEL-7402 cells) [µM] | ctDNADC50/Pu27DC50 (Pu27 (c-myc) G4) | Pu27DC50 (Pu27 (c-myc) G4) [µM] | also measured |
| --- | --- | --- | --- | --- | --- | --- | --- | --- | --- | --- | --- | --- | --- | --- | --- | --- | --- | --- | --- | --- | --- |
| O=C(NC[C@@H](O)CO)c1cnc2c3c(cccc13)-c1ccccc1C2=O.[Cl-].[Cl-].[Pt+2] [ligand 2, R-(+)-FOA] | 9.6 ± 0.6 | 19.6 ± 0.8 | 158.1 ± 0.6 | 17.5 ± 0.4 | 23.6 ± 2.3 | 90.6 ± 0.3 | 18.9 ± 0.6 | 26.8 ± 1.2 | 87.5 ± 0.8 | 28.9 ± 1.4 | 47.9 ± 0.9 | 67.2 ± 1.5 | 25.1 ± 1.2 | 50.0 ± 0.6 | 72.3 ± 1 | 17.0 ± 0.6 | 22.3 ± 1.1 | 94.1 ± 0.5 | 22.59 | 1.77 | selectivity index factor, IC50 (normal HL-7702 cells)/IC50 (BEL-7404 tumor cells) (HL-7702 normal cells; 24 h): 1.4; Inhibitory rates (%) (HL-7702 normal cells; 24 h): 25.2 ± 0.3%; Inhibitory rates (%) (HL-7702 normal cells; 48 h): 30.6 ± 2.1%; IC50 (HL-7702 normal cells): 101.8 ± 0.4 µM |
| O=C(NC[C@H](O)CO)c1cnc2c3c(cccc13)-c1ccccc1C2=O.[Cl-].[Cl-].[Pt+2] [ligand 3, S-(–)-FOA] | 24.2 ± 0.5 | 28.2 ± 1.4 | 78.2 ± 0.7 | 24.9 ± 0.8 | 29.3 ± 0.9 | 70.1 ± 0.8 | 31.2 ± 0.4 | 36.6 ± 1.5 | 43.2 ± 0.4 | 37.2 ± 0.8 | 51.2 ± 3.4 | 36.4 ± 1 | 42.8 ± 0.4 | 64.8 ± 1.3 | 30.1 ± 0.7 | 35.1 ± 1.3 | 41.8 ± 2.5 | 45.8 ± 1.4 | 62.81 | 1.43 | selectivity index factor, IC50 (normal HL-7702 cells)/IC50 (BEL-7404 tumor cells) (HL-7702 normal cells; 24 h): 3.5; Inhibitory rates (%) (HL-7702 normal cells; 24 h): 23.4 ± 0.9%; Inhibitory rates (%) (HL-7702 normal cells; 48 h): 27.5 ± 1.2%; IC50 (HL-7702 normal cells): 105.3 ± 1 µM |
